Data reported in patent publication US11298314B2, “Injectable composition for localized fat reduction without pain, edema, and side effects, and method for preparing same” (AMI PHARM CO., LTD., priority 2017, dated 2022).
“Also recorded” adds a separate entry of the source.

Tested on: 3T3-L1 adipocytes
Assay: Adipocyte (3T3-L1) reducing effect, MTT assay
Assay type: cell-based
Conditions: for adipocyte-reducing activity compared with DCA 1.0% (Kybella): 96 hours
Procedure: Tests were performed to compare the adipocyte reducing activity of the PPC single composition and the PPC composition solubilized with bile acids. Differentiated 3T3L-1 adipocyte lines were used to observe adipocyte reduction activity, and cell viability was monitored by MTT assay. […] Materials and methods employed in the following experiments are described below. In the following, % of the composition refers to % (w/v).
The specific test methods are as follows. […] The cells were washed twice with PBS, treated with MTT reagent (50 μl) and left at 37° C. for 2 hours. After removing the supernatant, MTT formazan crystals were dissolved in DMSO and the absorbance was measured at 540 nm using a microplate reader.
The 3T3-L1 adipocyte (ATCC) was cultured in Dulbecco's modified eagle medium (DMEM) (Invitrogen) supplemented with 10% fetal bovine serum, 100 units/ml penicillin and 100 μg/ml streptomycin under the condition of 5% CO2 and 37° C. […] Subsequently, the medium was replaced with DMEM medium containing 1 μg/ml insulin (Sigma), and the culture medium was maintained and changed every 2 to 3 days until the degree of differentiation reaches maximum. If it took more than 7 days, the cells were kept in normal DMEM culture medium until starting the tests. […] After the cells were incubated for 3 hours under the condition of 37° C. and 5% CO2, the MTT solution was removed.

1,2-diacyl-sn-glycero-3-phosphocholine [PPC]
adipocyte viability / adipocyte-reducing activity (24 to 96 hours, various concentrations, listed as PPC single composition): reduced adipocyte viability in time and concentration dependent manner
adipocyte-reducing activity compared with DCA 1.0% (Kybella) (listed as PPC 5%): equivalent
adipocyte-reducing activity compared with DCA 1.0% (Kybella) (listed as PPC 5.0%): similar; also recorded: equivalent
concentration of phosphatidylcholine with no lipolysis effect (FIGS. 7A to 7D): less than 0.625 % (w/v)
